# From publication PMC5218480 (PLoS ONE, 2017)
# Test system: MV-4-11 cells
# Assay: Gene expression microarray analysis (Affymetrix PrimeView) and GSEA
# Assay type: cell-based, human
# Set-up: RFU PODN (11730768_x_at) / Fold change /veh PODN (11730768_x_at) / RFU LINC00158 (11744669_a_at) / Fold change /veh LINC00158 (11744669_a_at) / RFU DUSP10 (11751237_a_at) / Fold change /veh DUSP10 (11751237_a_at) / RFU ID3 (11757404_x_at) / Fold change /veh ID3 (11757404_x_at) / RFU PLEKHG5 (11737974_s_at) / Fold change /veh PLEKHG5 (11737974_s_at) / RFU LRRC4B (11730491_at) / Fold change /veh LRRC4B (11730491_at) / RFU GIMAP4 (11747438_a_at) / Fold change /veh GIMAP4 (11747438_a_at) / RFU KRT8 (11758183_x_at) / Fold change /veh KRT8 (11758183_x_at) / RFU CNN1 (11734310_a_at) / Fold change /veh CNN1 (11734310_a_at) / RFU VPS37D (11726825_at) / Fold change /veh VPS37D (11726825_at) / RFU C10orf10 (11716522_x_at) / Fold change /veh C10orf10 (11716522_x_at) / RFU KIR2DL2 /// KIR2DL4 /// KIR2DL5A /// KIR2DL5B /// KIR2DS1 /// KIR2DS2 /// KIR2DS3 /// KIR2DS4 /// KIR3DL3 /// KIR3DL3 /// KIR3DS1 (11738374_at) / Fold change /veh KIR2DL2 /// KIR2DL4 /// KIR2DL5A /// KIR2DL5B /// KIR2DS1 /// KIR2DS2 /// KIR2DS3 /// KIR2DS4 /// KIR3DL3 /// KIR3DL3 /// KIR3DS1 (11738374_at) / RFU C1QL1 (11718748_at) / Fold change /veh C1QL1 (11718748_at) / RFU TMPRSS4 (11747572_a_at) / Fold change /veh TMPRSS4 (11747572_a_at) / RFU HAMP (11756126_x_at) / Fold change /veh HAMP (11756126_x_at) / RFU RNFT2 (11725882_a_at) / Fold change /veh RNFT2 (11725882_a_at) / RFU NR4A2 (11747474_a_at) / Fold change /veh NR4A2 (11747474_a_at) / RFU ABCC12 (11746883_a_at) / Fold change /veh ABCC12 (11746883_a_at) / RFU TMEM136 (11760407_x_at) / Fold change /veh TMEM136 (11760407_x_at) / RFU CLDN22 /// WWC2 (11732394_at) / Fold change /veh CLDN22 /// WWC2 (11732394_at) / RFU HLA-DPB1 (11760878_x_at) / Fold change /veh HLA-DPB1 (11760878_x_at) / RFU SPINT1 (11716480_a_at) / Fold change /veh SPINT1 (11716480_a_at) / RFU GAP43 (11754022_s_at) / Fold change /veh GAP43 (11754022_s_at) / RFU A4GNT (11735810_at) / Fold change /veh A4GNT (11735810_at) / RFU PRB3 (11715151_x_at) / Fold change /veh PRB3 (11715151_x_at) / RFU TUBB4B (11761932_at) / Fold change /veh TUBB4B (11761932_at) / RFU CAPN14 (11732068_a_at) / Fold change /veh CAPN14 (11732068_a_at) / RFU TMCC2 (11721928_a_at) / Fold change /veh TMCC2 (11721928_a_at) / RFU IRGQ (11745062_a_at) / Fold change /veh IRGQ (11745062_a_at) / RFU FAM174B (11720279_a_at) / Fold change /veh FAM174B (11720279_a_at) / RFU TMPRSS4 (11748680_a_at) / Fold change /veh TMPRSS4 (11748680_a_at) / RFU FAM212B (11763350_a_at) / Fold change /veh FAM212B (11763350_a_at) / RFU PLEKHG5 (11743358_a_at) / Fold change /veh PLEKHG5 (11743358_a_at) / RFU ZSCAN30 (11745921_a_at) / Fold change /veh ZSCAN30 (11745921_a_at) / RFU CMKLR1 (11741424_a_at) / Fold change /veh CMKLR1 (11741424_a_at) / RFU LOC101060620 /// MAPK8IP1 (11723275_at) / Fold change /veh LOC101060620 /// MAPK8IP1 (11723275_at) / RFU SPTSSB (11747773_x_at) / Fold change /veh SPTSSB (11747773_x_at) / RFU PRSS12 (11739890_at) / Fold change /veh PRSS12 (11739890_at) / RFU BIN1 (11741810_x_at) / Fold change /veh BIN1 (11741810_x_at) / RFU WNT11 (11732464_a_at) / Fold change /veh WNT11 (11732464_a_at) / RFU C10orf10 (11716521_a_at) / Fold change /veh C10orf10 (11716521_a_at) / RFU C5orf56 (11738089_at) / Fold change /veh C5orf56 (11738089_at) / RFU CYB561 (11721691_x_at) / Fold change /veh CYB561 (11721691_x_at) / RFU ANKRD19P (11752326_a_at) / Fold change /veh ANKRD19P (11752326_a_at) / RFU OR2T12 /// OR2T33 /// OR2T8 (11738714_s_at) / Fold change /veh OR2T12 /// OR2T33 /// OR2T8 (11738714_s_at) / RFU VCAN (11748164_a_at) / Fold change /veh VCAN (11748164_a_at) / RFU JSRP1 (11732532_at) / Fold change /veh JSRP1 (11732532_at) / RFU KRTAP10-11 (11738290_x_at) / Fold change /veh KRTAP10-11 (11738290_x_at) / RFU MYO3A (11730013_a_at) / Fold change /veh MYO3A (11730013_a_at) / RFU EBF3 (11725865_a_at) / Fold change /veh EBF3 (11725865_a_at) / RFU CAMK2N1 (11719241_x_at) / Fold change /veh CAMK2N1 (11719241_x_at) / RFU C5orf56 (11738088_a_at) / Fold change /veh C5orf56 (11738088_a_at) / RFU OLFML3 (11715873_a_at) / Fold change /veh OLFML3 (11715873_a_at) / RFU LOC100653217 /// NTM (11731650_a_at) / Fold change /veh LOC100653217 /// NTM (11731650_a_at) / RFU MAPK11 (11762145_a_at) / Fold change /veh MAPK11 (11762145_a_at) / RFU FIZ1 (11724087_x_at) / Fold change /veh FIZ1 (11724087_x_at) / RFU OASL (11726364_x_at) / Fold change /veh OASL (11726364_x_at) / RFU SOX15 (11748057_x_at) / Fold change /veh SOX15 (11748057_x_at) / RFU CD79A (11719716_a_at) / Fold change /veh CD79A (11719716_a_at) / RFU HIST1H1D (11736915_at) / Fold change /veh HIST1H1D (11736915_at) / RFU CASKIN2 (11723855_a_at) / Fold change /veh CASKIN2 (11723855_a_at) / RFU LOC730098 (11760151_x_at) / Fold change /veh LOC730098 (11760151_x_at) / RFU OR4N2 (11742367_at) / Fold change /veh OR4N2 (11742367_at) / RFU PRRT2 (11749266_a_at) / Fold change /veh PRRT2 (11749266_a_at) / RFU SNX32 (11753110_a_at) / Fold change /veh SNX32 (11753110_a_at) / RFU CDHR5 (11726645_a_at) / Fold change /veh CDHR5 (11726645_a_at) / RFU RCAN1 (11760418_a_at) / Fold change /veh RCAN1 (11760418_a_at) / RFU FAM167A (11723789_a_at) / Fold change /veh FAM167A (11723789_a_at) / RFU FAM26E (11764081_at) / Fold change /veh FAM26E (11764081_at) / RFU ISYNA1 (11749810_s_at) / Fold change /veh ISYNA1 (11749810_s_at) / RFU ACY1 (11761880_at) / Fold change /veh ACY1 (11761880_at) / RFU 11764098_at / Fold change /veh 11764098_at / RFU SAMD14 (11745864_x_at) / Fold change /veh SAMD14 (11745864_x_at) / RFU NPB (11741838_a_at) / Fold change /veh NPB (11741838_a_at) / RFU TMPRSS6 (11731388_a_at) / Fold change /veh TMPRSS6 (11731388_a_at) / RFU KRTAP10-2 (11738614_at) / Fold change /veh KRTAP10-2 (11738614_at) / RFU ARHGAP8 /// PRR5-ARHGAP8 (11727945_x_at) / Fold change /veh ARHGAP8 /// PRR5-ARHGAP8 (11727945_x_at) / RFU KRTAP5-7 /// NADSYN1 (11734609_at) / Fold change /veh KRTAP5-7 /// NADSYN1 (11734609_at) / RFU RASL12 (11751679_a_at) / Fold change /veh RASL12 (11751679_a_at) / RFU CDKN2B (11736163_a_at) / Fold change /veh CDKN2B (11736163_a_at) / RFU PRF1 (11729649_at) / Fold change /veh PRF1 (11729649_at) / RFU, ZNF638 /// ZNF638-IT1 / Fold change vs veh, ZNF638 /// ZNF638-IT1 / RFU, PANK3 / Fold change vs veh, PANK3 / RFU, SH3YL1 / Fold change vs veh, SH3YL1 / RFU, ZEB2 / Fold change vs veh, ZEB2 / RFU, NRIP1 / Fold change vs veh, NRIP1 / RFU, PTTG1IP / Fold change vs veh, PTTG1IP / RFU, CAPN2 / Fold change vs veh, CAPN2 / RFU, MED14 / Fold change vs veh, MED14 / RFU, SNORA58 / Fold change vs veh, SNORA58 / RFU, C1orf63 / Fold change vs veh, C1orf63 / RFU, LRRFIP1 / Fold change vs veh, LRRFIP1 / RFU, NDUFAF7 / Fold change vs veh, NDUFAF7 / RFU, SLC12A2 / Fold change vs veh, SLC12A2 / RFU, IBTK / Fold change vs veh, IBTK / RFU, ESF1 / Fold change vs veh, ESF1 / Fold change vs veh, TMEM50B / RFU, TAOK1 / Fold change vs veh, TAOK1 / RFU, ACBD3 / Fold change vs veh, ACBD3 / RFU, TMA16 / Fold change vs veh, TMA16 / RFU, RWDD3 / Fold change vs veh, RWDD3 / RFU, BCAT1 / Fold change vs veh, BCAT1 / RFU, EDEM3 / Fold change vs veh, EDEM3 / RFU, TMEM33 / Fold change vs veh, TMEM33 / RFU, WDR75 / Fold change vs veh, WDR75 / RFU, AHCTF1 / Fold change vs veh, AHCTF1 / RFU, TFRC / Fold change vs veh, TFRC / RFU, ZDHHC17 / Fold change vs veh, ZDHHC17 / RFU, NOM1 / Fold change vs veh, NOM1 / RFU, ARL8B / Fold change vs veh, ARL8B / RFU, ZBTB11 / Fold change vs veh, ZBTB11 / RFU, TAMM41 / Fold change vs veh, TAMM41 / RFU, KIAA1704 /// LOC100996395 / Fold change vs veh, KIAA1704 /// LOC100996395 / RFU, ING1 / Fold change vs veh, ING1 / RFU, TRMT61B / Fold change vs veh, TRMT61B / RFU, FUBP3 / Fold change vs veh, FUBP3 / RFU, TP53 / Fold change vs veh, TP53 / RFU, TNKS2 / Fold change vs veh, TNKS2 / RFU, ZFP14 / Fold change vs veh, ZFP14 / RFU, ACTR2 / Fold change vs veh, ACTR2 / RFU, PPP3R1 / Fold change vs veh, PPP3R1 / RFU, PIK3R1 / Fold change vs veh, PIK3R1 / RFU, HNRNPA1 / Fold change vs veh, HNRNPA1 / RFU, RNF170 / Fold change vs veh, RNF170 / RFU, ZNF28 / Fold change vs veh, ZNF28 / RFU, RNGTT / Fold change vs veh, RNGTT / RFU, OGT / Fold change vs veh, OGT / RFU, BRD1 / Fold change vs veh, BRD1 / RFU, MARS / Fold change vs veh, MARS / RFU, ZNF655 / Fold change vs veh, ZNF655 / RFU, FAHD1 / Fold change vs veh, FAHD1 / RFU, BDP1 / Fold change vs veh, BDP1 / RFU, LRRCC1 / Fold change vs veh, LRRCC1 / RFU, ARID1A / Fold change vs veh, ARID1A / RFU, ZNF146 / Fold change vs veh, ZNF146 / RFU, ZNF330 / Fold change vs veh, ZNF330 / RFU, GPN3 / Fold change vs veh, GPN3 / RFU, C9orf123 / Fold change vs veh, C9orf123 / RFU, N4BP2L2 / Fold change vs veh, N4BP2L2 / RFU, ARFIP1 / Fold change vs veh, ARFIP1 / RFU, FAM179B / Fold change vs veh, FAM179B / RFU, BCL10 / Fold change vs veh, BCL10 / RFU, UHRF1BP1L / Fold change vs veh, UHRF1BP1L / RFU, BET1 / Fold change vs veh, BET1 / RFU, CNOT2 / Fold change vs veh, CNOT2 / RFU, ZNF268 / Fold change vs veh, ZNF268 / Fold change vs veh, ZNF507 / RFU, DGCR2 / Fold change vs veh, DGCR2 / RFU, WDSUB1 / Fold change vs veh, WDSUB1 / Fold change vs veh, HSP90B1 /// MIR3652 / RFU, ADSS / Fold change vs veh, ADSS / RFU, GK / Fold change vs veh, GK / RFU, ZNF148 / Fold change vs veh, ZNF148 / RFU, TAF9 / Fold change vs veh, TAF9 / RFU, SLC1A5 / Fold change vs veh, SLC1A5 / RFU, SLMO2 / Fold change vs veh, SLMO2 / RFU, ABCC4 / Fold change vs veh, ABCC4 / RFU, LOC101060439 /// RAP1B / Fold change vs veh, LOC101060439 /// RAP1B / RFU, RFX7 / Fold change vs veh, RFX7 / RFU, GTPBP10 / Fold change vs veh, GTPBP10 / RFU, CNEP1R1 / Fold change vs veh, CNEP1R1 / RFU, BIVM-ERCC5 /// ERCC5 / Fold change vs veh, BIVM-ERCC5 /// ERCC5 / RFU, ILF3 / Fold change vs veh, ILF3 / RFU 11762660_at / Fold change /veh 11762660_at / RFU VCAN (11757783_s_at) / Fold change /veh VCAN (11757783_s_at) / RFU DDX43 (11728927_at) / Fold change /veh DDX43 (11728927_at) / RFU KRT8 (11758188_x_at) / Fold change /veh KRT8 (11758188_x_at) / RFU NKD1 (11759106_at) / Fold change /veh NKD1 (11759106_at) / RFU SRD5A1 (11742802_a_at) / Fold change /veh SRD5A1 (11742802_a_at) / RFU TPSAB1 /// TPSB2 (11721975_s_at) / Fold change /veh TPSAB1 /// TPSB2 (11721975_s_at) / RFU GSTM3 (11746129_a_at) / Fold change /veh GSTM3 (11746129_a_at) / RFU IL23R (11737362_x_at) / Fold change /veh IL23R (11737362_x_at) / RFU TMEM51 (11727254_a_at) / Fold change /veh TMEM51 (11727254_a_at) / RFU PIWIL2 (11732686_x_at) / Fold change /veh PIWIL2 (11732686_x_at) / RFU ORM1 (11744905_x_at) / Fold change /veh ORM1 (11744905_x_at) / RFU CCDC152 (11743942_at) / Fold change /veh CCDC152 (11743942_at) / RFU ECM1 (11717891_a_at) / Fold change /veh ECM1 (11717891_a_at) / RFU IL23R (11748794_a_at) / Fold change /veh IL23R (11748794_a_at) / RFU TNFAIP8L3 (11732012_x_at) / Fold change /veh TNFAIP8L3 (11732012_x_at) / RFU MBOAT4 (11741988_at) / Fold change /veh MBOAT4 (11741988_at) / RFU 11764193_at / Fold change /veh 11764193_at / RFU TMEM53 (11763286_at) / Fold change /veh TMEM53 (11763286_at) / RFU MAGEB2 (11727129_at) / Fold change /veh MAGEB2 (11727129_at) / RFU TMEM200A (11744735_a_at) / Fold change /veh TMEM200A (11744735_a_at) / RFU CCDC152 (11751479_a_at) / Fold change /veh CCDC152 (11751479_a_at) / RFU FAM211A (11726209_a_at) / Fold change /veh FAM211A (11726209_a_at) / RFU RGS16 (11746705_a_at) / Fold change /veh RGS16 (11746705_a_at) / RFU VCAN (11755009_s_at) / Fold change /veh VCAN (11755009_s_at) / RFU RHOB (11743442_s_at) / Fold change /veh RHOB (11743442_s_at) / RFU RGS16 (11720943_a_at) / Fold change /veh RGS16 (11720943_a_at) / RFU RGS16 (11720944_at) / Fold change /veh RGS16 (11720944_at) / RFU, VPS4B / Fold change vs veh, VPS4B / RFU, CREB1 / Fold change vs veh, CREB1 / RFU, DNAJC13 / Fold change vs veh, DNAJC13 / RFU, GNAQ / Fold change vs veh, GNAQ / RFU, CDK5R1 / Fold change vs veh, CDK5R1 / RFU, ZRANB3 / Fold change vs veh, ZRANB3 / RFU, CUL4A / Fold change vs veh, CUL4A / RFU, CCNY / Fold change vs veh, CCNY / RFU, UFL1 / Fold change vs veh, UFL1 / RFU, COG3 / Fold change vs veh, COG3 / RFU, DIAPH2 / Fold change vs veh, DIAPH2 / RFU, SKA2 / Fold change vs veh, SKA2 / RFU, AFF3 / Fold change vs veh, AFF3 / RFU, LMF1 / Fold change vs veh, LMF1 / RFU, IPO11 / Fold change vs veh, IPO11 / RFU, DFFB / Fold change vs veh, DFFB / RFU, FOXP1 / Fold change vs veh, FOXP1 / RFU, CARD8 / Fold change vs veh, CARD8 / RFU, STRN3 / Fold change vs veh, STRN3 / RFU, ADK / Fold change vs veh, ADK / RFU, RASSF2 / Fold change vs veh, RASSF2 / RFU, WIPF1 / Fold change vs veh, WIPF1 / RFU, LARP1B / Fold change vs veh, LARP1B / RFU, RASA1 / Fold change vs veh, RASA1 / RFU, RB1 / Fold change vs veh, RB1 / RFU, PPFIA1 / Fold change vs veh, PPFIA1 / RFU, MAT2A / Fold change vs veh, MAT2A / RFU, CCT5 / Fold change vs veh, CCT5 / RFU, WDR92 / Fold change vs veh, WDR92 / RFU, CUX1 / Fold change vs veh, CUX1 / RFU, TTC7A / Fold change vs veh, TTC7A / RFU, TMEM135 / Fold change vs veh, TMEM135 / RFU, DEPTOR / Fold change vs veh, DEPTOR / RFU, CPM / Fold change vs veh, CPM / RFU, DNAJB6 / Fold change vs veh, DNAJB6 / RFU, CACNA2D3 / Fold change vs veh, CACNA2D3 / RFU, DTX4 / Fold change vs veh, DTX4 / RFU, TFCP2 / Fold change vs veh, TFCP2 / RFU, GMCL1 /// GMCL1P1 / Fold change vs veh, GMCL1 /// GMCL1P1 / RFU, AEBP2 / Fold change vs veh, AEBP2 / RFU, SNHG1 /// SNORD22 /// SNORD25 /// SNORD26 /// SNORD27 /// SNORD28 /// SNORD29 /// SNORD31 / Fold change vs veh, SNHG1 /// SNORD22 /// SNORD25 /// SNORD26 /// SNORD27 /// SNORD28 /// SNORD29 /// SNORD31 / Fold change (Aza/veh), C12orf56 (ProbeSet 11735607_a_at) / Fold change (ACY-1035/veh), C12orf56 (ProbeSet 11735607_a_at) / Fold change (Aza/veh), FGFR1OP (ProbeSet 11751329_s_at) / Fold change (ACY-1035/veh), FGFR1OP (ProbeSet 11751329_s_at) / Fold change (Aza/veh), VPS36 (ProbeSet 11739960_a_at) / Fold change (ACY-1035/veh), VPS36 (ProbeSet 11739960_a_at) / RFU SYPL1 (11715823_x_at) / Fold change /veh SYPL1 (11715823_x_at) / RFU IGFBP7 (11715501_s_at) / Fold change /veh IGFBP7 (11715501_s_at) / RFU REEP3 (11722064_at) / Fold change /veh REEP3 (11722064_at) / RFU IGLL1 (11728026_x_at) / Fold change /veh IGLL1 (11728026_x_at): dose or concentration left out as unconfirmed
# Settings: MV-4-11 cells, 48 hours
smiles,measurement,value
Nc1ccc(-c2cccs2)cc1NC(=O)c1ccc2c(c1)cc(C1CC1)n2CCN1CCOCC1 [ACY-1035],RFU RHOB (11743442_s_at),104.18 RFU
